According to US10538498B2, “1,3,4-oxadiazole sulfonamide derivative compounds as histone deacetylase 6 inhibitor, and the pharmaceutical composition comprising the same” (Chong Kun Dang Pharmaceutical Corp., priority 2015, dated 2020):

Target: T1, human recombinant HDAC6 (Homo sapiens, UniProt Q9UBN7)
T1 construct: purchased Calbiochem 382180
T1 sequence (Q9UBN7 1-1215): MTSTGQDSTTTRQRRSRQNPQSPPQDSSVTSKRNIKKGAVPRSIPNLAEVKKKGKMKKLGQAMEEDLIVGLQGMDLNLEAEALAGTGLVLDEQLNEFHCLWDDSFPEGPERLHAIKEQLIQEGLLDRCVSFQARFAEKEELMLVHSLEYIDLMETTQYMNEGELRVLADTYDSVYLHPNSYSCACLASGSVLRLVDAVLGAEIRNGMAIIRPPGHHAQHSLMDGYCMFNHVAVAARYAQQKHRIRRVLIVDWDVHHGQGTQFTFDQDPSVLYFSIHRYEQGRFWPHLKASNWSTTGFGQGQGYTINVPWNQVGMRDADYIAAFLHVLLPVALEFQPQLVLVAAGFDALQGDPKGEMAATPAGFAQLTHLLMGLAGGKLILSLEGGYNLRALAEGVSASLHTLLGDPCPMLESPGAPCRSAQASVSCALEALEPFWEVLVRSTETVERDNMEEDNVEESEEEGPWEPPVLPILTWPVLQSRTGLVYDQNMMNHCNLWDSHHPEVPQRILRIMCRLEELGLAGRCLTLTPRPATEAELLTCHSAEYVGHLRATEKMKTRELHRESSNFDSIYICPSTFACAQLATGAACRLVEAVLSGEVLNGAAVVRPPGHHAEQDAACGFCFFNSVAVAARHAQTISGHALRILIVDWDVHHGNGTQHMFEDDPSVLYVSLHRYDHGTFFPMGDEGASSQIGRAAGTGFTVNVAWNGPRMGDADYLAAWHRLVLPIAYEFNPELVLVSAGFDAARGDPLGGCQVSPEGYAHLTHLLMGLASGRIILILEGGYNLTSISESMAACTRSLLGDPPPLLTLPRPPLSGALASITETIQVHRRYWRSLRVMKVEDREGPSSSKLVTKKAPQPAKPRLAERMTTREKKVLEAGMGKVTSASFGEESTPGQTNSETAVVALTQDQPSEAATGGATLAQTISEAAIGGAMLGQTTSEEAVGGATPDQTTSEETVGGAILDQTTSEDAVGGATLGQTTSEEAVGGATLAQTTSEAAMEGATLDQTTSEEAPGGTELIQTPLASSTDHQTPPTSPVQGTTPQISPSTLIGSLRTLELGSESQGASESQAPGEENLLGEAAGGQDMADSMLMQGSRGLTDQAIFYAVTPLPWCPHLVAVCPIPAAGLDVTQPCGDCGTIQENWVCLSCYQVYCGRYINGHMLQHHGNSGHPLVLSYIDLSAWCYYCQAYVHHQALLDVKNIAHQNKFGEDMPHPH
Experiment: HDAC6 enzyme activity inhibition assay (HDAC Fluorimetric Drug Discovery Kit)
Type: biochemical
Settings: for HDAC6 selectivity (fold): HDAC1 vs HDAC6; for IC50: same protocol as the HDAC1 enzyme activity test
In short: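 Recombinant enzyme (0.3 μg) was incubated with 5-fold serially diluted compound and 10 μM Fluor de Lys-SIRT1 substrate for 60 min at 30° C. Developer II was then added for 30 min, fluorescence read at Ex 360/Em 460, and IC50 values were calculated.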

Structure (SMILES): CS(=O)(=O)N(Cc1ccc(-c2nnc(C(F)F)o2)cc1)c1cncnc1 [Compound 11636, N-(4-(5-(difluoromethyl)-1,3,4-oxadiazol-2-yl)benzyl)-N-(pyrimidin-5-yl)methanesulfonamide]
- HDAC6 selectivity (fold): 862 fold
- IC50: 116 nM

Structure (SMILES): CS(=O)(=O)N(Cc1ccc(-c2nnc(C(F)F)o2)cn1)c1cccc(C(F)(F)F)c1 [Compound 11324, N-((5-(5-(difluoromethyl)-1,3,4-oxadiazol-2-yl)pyridin-2-yl)methyl)-N-(3-(trifluoromethyl)phenyl)methanesulfonamide]
- HDAC6 selectivity (fold): 4762 fold
- IC50: 21 nM

Structure (SMILES): O=S(=O)(CCN1CCN(c2noc3ccccc23)CC1)N(Cc1ccc(-c2nnc(C(F)F)o2)cc1)c1ccccc1 [Compound 11844, 2-(4-(benzo[d]isoxazol-3-yl)piperazin-1-yl)-N-(4-(5-(difluoromethyl)-1,3,4-oxadiazol-2-yl)benzyl)-N-phenylethane-1-sulfonamide]
- HDAC6 selectivity (fold): 172 fold
- IC50: 581 nM

Structure (SMILES): O=S(=O)(CCCN1CC[C@H](F)C1)N(Cc1ccc(-c2nnc(C(F)F)o2)cc1)c1ccccc1 [Compound 11705, (S)—N-(4-(5-(difluoromethyl)-1,3,4-oxadiazol-2-yl)benzyl)-3-(3-fluoropyrrolidin-1-yl)-N-phenylpropane-1-sulfonamide]
- HDAC6 selectivity (fold): 637 fold
- IC50: 157 nM

Structure (SMILES): CCN1CC(N2CCC(S(=O)(=O)N(Cc3ccc(-c4nnc(C(F)F)o4)cc3)c3cccc(Cl)c3)CC2)C1 [Compound 11777, N-(3-chlorophenyl)-N-(4-(5-(difluoromethyl)-1,3,4-oxadiazol-2-yl)benzyl)-1-(1-ethylazetidin-3-yl)piperidine-4-sulfonamide]
- HDAC6 selectivity (fold): 3472 fold
- IC50: 28.8 nM

Structure (SMILES): Cc1cccc(N(Cc2ccc(-c3nnc(C(F)F)o3)cn2)S(=O)(=O)C2CCN(C3COC3)CC2)c1 [Compound 11684, N-((5-(5-(difluoromethyl)-1,3,4-oxadiazol-2-yl)pyridin-2-yl)methyl)-1-(oxetan-3-yl)-N-(m-tolyl)piperidine-4-sulfonamide]
- HDAC6 selectivity (fold): 6250 fold
- IC50: 16 nM

Structure (SMILES): Cc1cccc(N(Cc2ccc(-c3nnc(C(F)F)o3)cc2)S(=O)(=O)C2CCN([C@H]3CC[C@@H](C(F)(F)F)CC3)CC2)c1 [Compound 11698, N-(4-(5-(difluoromethyl)-1,3,4-oxadiazol-2-yl)benzyl)-N-(m-tolyl)-1-((1s,4s)-4-(trifluoromethyl)cyclohexyl)piperidine-4-sulfonamide]
- HDAC6 selectivity (fold): 151 fold
- IC50: 661 nM

Structure (SMILES): O=S(=O)(CCN1CCC(O)CC1)N(Cc1ccc(-c2nnc(C(F)F)o2)cc1)c1ccccc1 [Compound 11822, N-(4-(5-(difluoromethyl)-1,3,4-oxadiazol-2-yl)benzyl)-2-(4-hydroxypiperidin-1-yl)-N-phenylethane-1-sulfonamide]
- HDAC6 selectivity (fold): 1365 fold
- IC50: 73.3 nM

Structure (SMILES): O=C(C1CC1)N1CC(N2CCC(S(=O)(=O)N(Cc3ccc(-c4nnc(C(F)F)o4)cc3)c3cccc(Cl)c3)CC2)C1 [Compound 11783, N-(3-chlorophenyl)-1-(1-(cyclopropanecarbonyl)azetidin-3-yl)-N-(4-(5-(difluoromethyl)-1,3,4-oxadiazol-2-yl)benzyl)piperidine-4-sulfonamide]
- HDAC6 selectivity (fold): 1440 fold
- IC50: 69.4 nM

Structure (SMILES): CS(=O)(=O)N(Cc1ccc(-c2nnc(C(F)F)o2)cn1)c1ccc(F)c(Cl)c1 [Compound 11433, N-(3-chloro-4-fluorophenyl)-N-((5-(5-(difluoromethyl)-1,3,4-oxadiazol-2-yl)pyridin-2-yl)methyl)methanesulfonamide]
- HDAC6 selectivity (fold): 8333 fold
- IC50: 12 nM

Structure (SMILES): CCS(=O)(=O)N(Cc1ccc(-c2nnc(C(F)F)o2)cn1)c1cccc2cnn(C)c12 [Compound 11541, N-((5-(5-(difluoromethyl)-1,3,4-oxadiazol-2-yl)pyridin-2-yl)methyl)-N-(1-methyl-1H-indazol-7-yl)ethanesulfonamide]
- HDAC6 selectivity (fold): 6250 fold
- IC50: 16 nM

Structure (SMILES): CS(=O)(=O)N(Cc1ccc(-c2nnc(C(F)F)o2)cc1F)c1cccc(C(F)(F)F)c1 [Compound 11176, N-(4-(5-(difluoromethyl)-1,3,4-oxadiazol-2-yl)-2-fluorobenzyl)-N-(3-(trifluoromethyl)phenyl)methanesulfonamide]
- HDAC6 selectivity (fold): 3571 fold
- IC50: 28 nM

Structure (SMILES): CS(=O)(=O)N(Cc1ccc(-c2nnc(C(F)F)o2)cc1F)c1ccc(Br)cc1 [Compound 11278, N-(4-bromophenyl)-N-(4-(5-(difluoromethyl)-1,3,4-oxadiazol-2-yl)-2-fluorobenzyl)methanesulfonamide]
- HDAC6 selectivity (fold): 1923 fold
- IC50: 52 nM

Structure (SMILES): O=S(=O)(CCN1CCN(c2ccc(Cl)c(Cl)c2)CC1)N(Cc1ccc(-c2nnc(C(F)F)o2)cc1)c1ccccc1 [Compound 11770, 2-(4-(3,4-dichlorophenyl)piperazin-1-yl)-N-(4-(5-(difluoromethyl)-1,3,4-oxadiazol-2-yl)benzyl)-N-phenylethane-1-sulfonamide]
- HDAC6 selectivity (fold): 112 fold
- IC50: 886 nM

Structure (SMILES): CCS(=O)(=O)N(Cc1ccc(-c2nnc(C(F)F)o2)cn1)c1cccc(Br)c1 [Compound 11366, N-(3-bromophenyl)-N-((5-(5-(difluoromethyl)-1,3,4-oxadiazol-2-yl)pyridin-2-yl)methyl)ethanesulfonamide]
- HDAC6 selectivity (fold): 9091 fold
- IC50: 11 nM

Structure (SMILES): CCS(=O)(=O)N(Cc1ccc(-c2nnc(C(F)F)o2)cn1)c1cccc2c1cnn2C [Compound 11539, N-((5-(5-(difluoromethyl)-1,3,4-oxadiazol-2-yl)pyridin-2-yl)methyl)-N-(1-methyl-1H-indazol-4-yl)ethanesulfonamide]
- HDAC6 selectivity (fold): 4348 fold
- IC50: 23 nM

Structure (SMILES): CC(=O)N1CC(N2CCC(S(=O)(=O)N(Cc3ccc(-c4nnc(C(F)F)o4)cc3)c3cccc(Cl)c3)CC2)C1 [Compound 11779, 1-(1-acetylazetidin-3-yl)-N-(3-chlorophenyl)-N-(4-(5-(difluoromethyl)-1,3,4-oxadiazol-2-yl)benzyl)piperidine-4-sulfonamide]
- HDAC6 selectivity (fold): 2493 fold
- IC50: 40.1 nM

Structure (SMILES): O=S(=O)(CCCN1CCC(F)(F)C1)N(Cc1ccc(-c2nnc(C(F)F)o2)cc1)c1ccccc1 [Compound 11706, N-(4-(5-(difluoromethyl)-1,3,4-oxadiazol-2-yl)benzyl)-3-(3,3-difluoropyrrolidin-1-yl)-N-phenylpropane-1-sulfonamide]
- HDAC6 selectivity (fold): 150 fold
- IC50: 662 nM

Structure (SMILES): CCC(C)S(=O)(=O)N(Cc1ccc(-c2nnc(C(F)F)o2)cc1F)c1ccccc1 (stereo not shown) [Compound 11230, N-(4-(5-(difluoromethyl)-1,3,4-oxadiazol-2-yl)-2-fluorobenzyl)-N-phenylbutane-2-sulfonamide]
- HDAC6 selectivity (fold): 3030 fold
- IC50: 33 nM

Structure (SMILES): COc1cccc(N(Cc2ccc(-c3nnc(C(F)F)o3)cc2F)S(C)(=O)=O)c1 [Compound 11180, N-(4-(5-(difluoromethyl)-1,3,4-oxadiazol-2-yl)-2-fluorobenzyl)-N-(3-methoxyphenyl)methanesulfonamide]
- HDAC6 selectivity (fold): 1613 fold
- IC50: 62 nM

Structure (SMILES): CS(=O)(=O)N(Cc1ccc(-c2nnc(C(F)F)o2)cc1F)c1ccc(C(F)(F)F)cc1 [Compound 11221, N-(4-(5-(difluoromethyl)-1,3,4-oxadiazol-2-yl)-2-fluorobenzyl)-N-(4-(trifluoromethyl)phenyl)methanesulfonamide]
- HDAC6 selectivity (fold): 990 fold
- IC50: 101 nM

Structure (SMILES): CN1CCC(S(=O)(=O)N(Cc2ccc(-c3nnc(C(F)F)o3)cc2F)c2ccccc2)CC1 [Compound 11372, N-(4-(5-(difluoromethyl)-1,3,4-oxadiazol-2-yl)-2-fluorobenzyl)-1-methyl-N-phenylpiperidine-4-sulfonamide]
- HDAC6 selectivity (fold): 11111 fold
- IC50: 9 nM

Structure (SMILES): CCS(=O)(=O)N(Cc1ccc(-c2nnc(C(F)F)o2)cc1F)c1ccc(CN2CCN(C(C)=O)CC2)cc1 [Compound 11402, N-(4-((4-acetylpiperazin-1-yl)methyl)phenyl)-N-(4-(5-(difluoromethyl)-1,3,4-oxadiazol-2-yl)-2-fluorobenzyl)ethanesulfonamide]
- HDAC6 selectivity (fold): 1316 fold
- IC50: 76 nM
